{
  "source": "patent US20230302031A1",
  "about": "“Modulators Of Purinergic Receptors and Related Immune Checkpoint For Treating Acute Respiratory Distress Syndrome” (priority 2020, published 2023)",
  "key": {"SARS-CoV-2": {"system": "SARS-CoV-2", "conditions": "reference 50; cited from earlier work"}, "[1]": {"system": "PMA-treated THP1 macrophages", "assay": "IL-10 secretion by PMA-treated THP1 macrophages", "format": "cell-based, human", "conditions": "100 μM, FIG. 6J", "method": "(§1) Plasma serum from P2y2^+/+ and P2y2^−/− mice and supernatants harvested from PMA-stimulated THP1 macrophages that were depleted or not for P2Y2 or NLRP3, and/or stimulated with 10 ng/mL LPS during 3 hours and 5 mM ATP during 6 hours or with 20 ng/mL IFNγ, in presence or in absence of 100 μM Suramin, 100 μM OxATP, 100 μM Kaempferol or 100 μM Diquafosol at indicated times were analyzed using western blot or ELISA for IL-1β (Ebioscience) and IL-10 (BD) according to the manufacturers' instructions."}, "MDMs [2]": {"system": "MDMs", "format": "cell-based, human", "conditions": "FIG. 6L, 6M"}, "[3]": {"system": "human monocyte derived macrophages (MDMs)", "assay": "IL-1β release from monocyte derived macrophages (MDMs)", "format": "cell-based", "conditions": "100 μM, FIG. 6G"}, "MDMs [4]": {"system": "MDMs", "assay": "IRF5 expression in MDMs (western blot)", "format": "cell-based, human", "conditions": "FIG. 6N"}, "MDMs [5]": {"system": "MDMs", "assay": "IL-10 secretion by MDMs", "format": "cell-based, human", "conditions": "100 μM, FIG. 6K"}, "[6]": {"system": "PMA-differentiated THP1 macrophages", "assay": "LDH release from PMA-differentiated THP1 macrophages", "format": "cell-based, human", "conditions": "treated or not with LPS and ATP; FIG. 5H"}, "[7]": {"system": "PMA-treated THP1 macrophages", "assay": "IL-1β release from LPS+ATP-stimulated PMA-THP1 macrophages (western blot/ELISA)", "format": "cell-based, human", "conditions": "100 μM compound; 10 ng/mL LPS 3 hours + 5 mM ATP 6 hours; FIG. 6E, 6I", "method": "Human THP-1 cells were cultured in RPMI 1640 media, supplemented with 10% FBS and differentiated by treatment for 3 hours with 100 nM phorbol-12-myristate-13-acetate (PMA, Invivogen). After 2 days, macrophage THP-1 cells were stimulated first 3 hours with ultrapure LPS from E. coli (10 ng/ml, LPS) and then stimulated for 6 hours with ATP (5 mM, Sigma) or treated with 50 ng or 20 ng of IFNg during 24 or 12 hours as indicated. Then, supernatants and cells were collected for western blot analysis.\nCells or supernatant were lysed in appropriated buffer (250 mM NaCl, 0.1% NP-40, 5 mM EDTA, 10 mM Na3VO4, 10 mM NaF, 5 mM DTT, 3 mM Na4P2O7, 1 mM EGTA, 10 mM Glycerol phosphate, 10 mM Tris-Hcl (pH=7.5) and the protease and phosphatase inhibitors (Roche)). Equal amount of supernatant or 10-40 μg of protein extracts were run on 4-12% or 10% SDS-PAGE and transferred at 4° C. onto a nitrocellulose membrane (0.2 Micron). After incubation for 2 hours at room temperature with 5% nonfat milk or BSA (Bovine Serum Albumine) in Tris-buffered saline and 0.1% Tween 20 (TBS-Tween), membranes were incubated with primary antibody at 4° C. overnight. […] The primary antibodies against. […] Western blots shown are representative of at least of three independent experiments.\nas §1"}, "MDMs [8]": {"system": "MDMs", "assay": "Microarray of human macrophage polarization-specific markers in MDMs", "format": "cell-based", "conditions": "100 μM, 72 hours, FIG. 6Q", "method": "MDMS were treated with 100 μM Kaempferol during 72 hours. Then, mRNAs were isolated using RNeasy kit (#74104, Quiagen) and gene expression analyses were performed with Agilent® SurePrint G3 Human GE 8x60K Microarray (Agilent Technologies, AMADID 39494) with the following single-color design. RNAs were labeled with Cy3 using the one-color Agilent labeling kit (Low Input Quick Amp Labeling Kit 5190-2306) adapted for small amount of total RNA (100 ng total RNA per reaction). Hybridization were then performed on microarray using 800 ng of linearly amplified cRNA labeled, following the manufacturer protocol (Agilent SureHyb Chamber; 800 ng of labeled extract; duration of hybridization of 17 hours; 40 μL per array; Temperature of 65° C.). […] Microarray images were analyzed by means of Feature Extraction software version (10.7.3.1) from Agitent technologies. […]\nRaw data files from Feature Extraction were imported into R with LIMMA (Smyth, 2004, Statistical applications in Genetics and molecular biology, vol 3, N°1, article 3), an R package from the Bioconductor project, and processed as follow: gMedianSignal data were imported, controls probes were systematically removed, and flagged probes (gisSaturated, glsFeatpopnOL, glsFeatNonUnifOL) were set to NA. […] Normalized data were then analyzed. […]"}, "[9]": {"system": "COVID-19 patients with severe inflammatory failure", "conditions": "early administration; retrospective study, reference 51; cited from earlier work"}},
  "data": [
    {"compound": "Ivermectin", "values": [
      {"measurement": "replication of SARS-CoV-2 in vitro", "setting": "SARS-CoV-2", "result": "inhibit the replication of SARS-CoV-2 in vitro"}
    ]},
    {"compound": "O=c1c(O)c(-c2ccc(O)cc2)oc2cc(O)cc(O)c12", "note": "[Kaempferol]", "values": [
      {"measurement": "secretion of IL-10", "setting": "[1]", "result": "reduced secretion of the immunosuppressive cytokine interleukin-10 (IL-10)"},
      {"measurement": "membrane expression of CD163", "setting": "MDMs [2]", "result": "diminished membrane expression of anti-inflammatory macrophage activation marker CD163"},
      {"measurement": "IL-1β release", "setting": "[3]", "result": "increased IL-1β release"},
      {"measurement": "expression of IRF5", "setting": "MDMs [4]", "result": "increased expression of the pro-inflammatory transcription factor IFN regulatory factor 5 (IRF5)"},
      {"measurement": "secretion of IL-10", "setting": "MDMs [5]", "result": "reduced secretion of the immunosuppressive cytokine interleukin-10 (IL-10)"},
      {"measurement": "LDH release (cell death marker)", "setting": "[6]", "result": "released the cell death marker, lactate dehydrogenase (LDH)"},
      {"measurement": "IL-1β release", "setting": "[7]", "result": "increased IL-1β release"},
      {"measurement": "known human markers of macrophage activation induced", "setting": "MDMs [8]", "result": 90, "unit": "%"}
    ]},
    {"compound": "anakinra: IL-1 receptor antagonist", "values": [
      {"measurement": "prognosis of COVID-19 patients", "setting": "[9]", "result": "significantly improved prognosis of COVID-19 patients with severe inflammatory failure"}
    ]}
  ]
}
